Laboratory results from patent US20100021420A1, “COMBINATIONS OF PYRAZOLE DERIVATIVES FOR THE INHIBITION OF CDKS AND GSK'S” (ASTEX THERAPEUTICS LIMITED, priority 2006, published 2010).

Tests used:
[1] = system: human colon carcinoma cell line HCT 116; assay: Anti-proliferative activity, HCT-116 cell line; assay type: cell-based; details: HCT 116 (ECACC No. 91091005)
Source text: See Example 15 of WO 2006/077426 at pages 100-101 (which is incorporated herein by reference).

CLL = details: initial therapy, symptomatic CLL patients, cited from earlier work
[2] = system: P-glycoprotein-overexpressing subline of leukemic cell line CCRF-CEM; details: cited from earlier work
A2780 cells = assay: IC50 shift assay (combination), A2780 cells; assay type: cell-based
[3] = system: Human colon carcinoma cell line HT29; assay: IC50 shift assay (combination), HT29 cells; assay type: cell-based; details: concurrent 72 hours, camptothecin 24 hours then Compound I 48 hours, or Compound I prior to camptothecin
Protocol: Human colon carcinoma cell line HT29 (ECACC No. 91072201) cells were seeded onto 96-well tissue culture plates at a concentration of 5×10^3 cells/well. Cells were allowed to recover overnight prior to addition of compound(s) or vehicle control (0.2% DMSO) as follows;
Compounds were added according to one of the following schedules; • a) Concurrent for 72 hours. • b) Compound I for 24 hours followed by camptothecin for 48 hours. • c) Camptothecin for 24 hours followed by Compound I for 48 hours.
Following a total of 72 hours compound incubation, Alamar Blue™ was added to a final concentration of 10% (v/v) and incubated at 37° C. for 6 hours. Fluorescent product was quantified by reading at d535/25× (excitation) and d590/20 m (emission) on a Fusion Reader (Perkin Elmer). The IC50 for camptothecin in the presence of varying doses of Compound I was determined.

SkBR3 cell line = assay: IC50 shift assay (combination), SkBR3 cells; assay type: cell-based
HCT116 cell line = assay: IC50 shift assay (combination), HCT116 cells; assay type: cell-based
[4] = antitumour agent; cited from earlier work
OVCAR-3 tumour cells = details: in which PKB is amplified, concentrations of 50 and 100 microM; cited from earlier work
PKC = details: cited from earlier work
[5] = Vapour sorption/desorption analysis; assay type: physicochemical
Protocol: Approximately 20 mg of sample was placed into a wire-mesh vapour sorption balance pan and loaded into an ‘IgaSorp’ vapour sorption balance (Hiden Analytical Instruments) held at 25+/−0.1° C. The sample was then dried by maintaining a 0% humidity environment (using mass flow control apparatus) until no further weight change was recorded. Subsequently, the sample was then subjected to a ramping profile from 0-90% relative humidity (% RH) at 10% RH increments, maintaining the sample at each step until equilibration had been attained (99.5% step completion).
Upon reaching equilibration, the % RH within the apparatus was ramped to the next step and the equilibration procedure repeated. After completion of the sorption cycle, the sample was then dried using the same procedure. The weight change during the sorption/desorption cycles was then monitored, allowing for the hygroscopic nature of the sample to be determined.

[6] = Thermogravimetric analysis; assay type: physicochemical
Protocol: Approximately 5 mg of sample (accurately weighed) was placed into a platinum TGA pan and loaded into a TGA 7 gravimetric analyser. The sample under study was then heated at a rate of 10° C./min (from ambient to 300° C.) and the resulting change in weight monitored. A dry nitrogen purge gas at a flow rate of 20 ml/min was used to produce an inert atmosphere and prevent oxidation of the sample during heating. Prior to analysis the instrument was weight calibrated using a 100 mg reference standard and temperature calibrated using an Alumel reference standard (using the Curie point transition temperature).

[7] = system: Acute Promyelocytic Leukemia (APL); details: cited from earlier work
[8] = mice; doses 10 times more than were needed for antitumour activity; cited from earlier work

SMILES: O=C(NC1CCNCC1)c1n[nH]cc1NC(=O)c1c(Cl)cccc1Cl [Example 1]
- IC50 [1]: < 20 µM

SMILES: Nc1nc(F)nc2c1ncn2[C@@H]1O[C@H](CO)[C@@H](O)[C@@H]1O [fludarabine, 9-β-D-arabinofuranosyl-2-fluoro-adenine]
- rate of complete responses (CLL; v 3% with alkylator-based therapies): 27%
- duration of progression-free survival (CLL; v 17 months with alkylator-based therapies): 33 months

SMILES: C/C1=C/C[C@@H](/C(C)=C/c2csc(C)n2)OC(=O)C[C@H](O)C(C)(C)C(=O)[C@H](C)[C@@H](O)[C@@H](C)CCC1 [desoxyepothilone B]
- IC50 [2]: 0.017 µM

SMILES: O=C(NC1CCNCC1)c1n[nH]cc1NC(=O)c1c(Cl)cccc1Cl [Compound I, 4-(2,6-dichloro-benzoylamino)-1H-pyrazole-3-carboxylic acid piperidin-4-ylamide]
- effect of combination with Paclitaxel in IC50 shift assay (A2780 cells; Paclitaxel 24 h followed by Compound I 48 h): synergy
- effect of combination with 5-FU in IC50 shift assay (A2780 cells; added concurrently for 72 h): mildly synergistic
- effect of combination with Iressa in IC50 shift assay (A2780 cells; added concurrently for 72 h): synergistic
- effect of combination with Paclitaxel in IC50 shift assay (A2780 cells; added concurrently for 72 h): Additive
- effect of combination with Cisplatin in IC50 shift assay (A2780 cells; concurrently for 72 h or Cisplatin 24 h followed by compound I 48 h): additive
- effect of combination with Etoposide in IC50 shift assay (A2780 cells; concurrently for 72 h or Etoposide 24 h followed by compound I 48 h): additive
- effect of combination with Gemcitibine in IC50 shift assay (A2780 cells; concurrently for 72 h or Gemcitibine 24 h followed by Compound I 48 h): additive
- effect of combination with Vinblastine in IC50 shift assay (A2780 cells; concurrently for 72 h or Vinblastine 24 h followed by compound I 48 h): additive
- effect of combination with camptothecin in IC50 shift assay [3]: additive
- effect of combination with Iressa (synergy) confirmed (SkBR3 cell line): confirmed
- effect of combination with Iressa (synergy) confirmed (HCT116 cell line): confirmed

SMILES: CCN[C@H]1CO[C@@H](O[C@H]2[C@H](O[C@H]3C#C/C=C\C#C[C@]4(O)CC(=O)C(NC(=O)OC)=C3/C4=C\CSSSC)O[C@H](C)[C@@H](NO[C@H]3C[C@H](O)[C@H](SC(=O)c4c(C)c(I)c(O[C@@H]5O[C@@H](C)[C@H](O)[C@@H](OC)[C@H]5O)c(OC)c4OC)[C@@H](C)O3)[C@@H]2O)C[C@@H]1OC [Calicheamicin]
- potency relative to adriamycin [4]: over 1,000 times

SMILES: O=S(=O)(NCCNCC=C(c1ccccc1)c1ccccc1)c1cccc2cnccc12 [NL-71-101]
- apoptosis (OVCAR-3 tumour cells): induced apoptosis
- IC50 (PKC): 104 µM

SMILES: CS(=O)(=O)N1CCC(NC(=O)c2n[nH]cc2NC(=O)c2c(Cl)cccc2Cl)CC1 [Set B Example 1, 4-(2,6-dichloro-benzoylamino)-1H-pyrazole-3-carboxylic acid (1-methanesulphonyl-piperidin-4-yl)-amide]
- weight loss during initial drying ([5]; 0% RH, 25 °C): approximately 0.01%
- hygroscopicity / hydrate formation ([5]; storage in elevated humidity conditions): physically stable with regard to hygroscopicity
- total weight increase ([5]; upon equilibration at 90% RH, 25 °C): 0.24%
- significant event (thermally induced partial degradation) in TGA plot ([6]; onset prior to the main melt transition): about 288 °C
- mass loss (TGA) ([6]; up to 150° C., crystals from Example 5 Step 8): approximately 0.2%

SMILES: CC1=C(/C=C/C(C)=C/C=C/C(C)=C/C(=O)O)C(C)(C)CCC1 [Tretinoin]
- remissions in APL patients [7]: 64-100%

SMILES: CCOC(=O)c1ccc2[nH]c3c(OC)c4[nH]c5ccc(C(=O)OCC)cc5c4cc3c2c1 [SR-13668]
- adverse effects [8]: no adverse effects
